In the assay the target is T1, human DLL3 (Homo sapiens, UniProt Q9NYJ7).
T1 sequence (Q9NYJ7 27-618): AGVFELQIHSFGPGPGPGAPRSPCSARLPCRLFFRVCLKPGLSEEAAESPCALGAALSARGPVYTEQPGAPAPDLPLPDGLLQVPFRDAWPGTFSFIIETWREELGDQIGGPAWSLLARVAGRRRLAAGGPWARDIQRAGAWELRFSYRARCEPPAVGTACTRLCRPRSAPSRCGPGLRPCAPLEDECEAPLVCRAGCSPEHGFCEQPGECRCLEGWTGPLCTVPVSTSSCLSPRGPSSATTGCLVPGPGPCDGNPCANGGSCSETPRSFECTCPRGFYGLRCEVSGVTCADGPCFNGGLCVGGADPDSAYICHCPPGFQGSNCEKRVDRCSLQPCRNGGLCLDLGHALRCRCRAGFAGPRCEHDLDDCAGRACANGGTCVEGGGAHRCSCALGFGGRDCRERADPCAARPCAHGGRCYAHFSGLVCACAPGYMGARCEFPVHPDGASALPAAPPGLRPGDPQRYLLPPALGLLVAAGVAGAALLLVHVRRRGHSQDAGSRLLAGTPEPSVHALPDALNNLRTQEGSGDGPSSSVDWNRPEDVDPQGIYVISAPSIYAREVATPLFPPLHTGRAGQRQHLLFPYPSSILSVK
The assay is described as follows: Affinity determination by Surface Plasmon Resonance (SPR). In kind it is binding. An outline of the steps: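 Biotinylated human DLL3 was captured on a streptavidin chip with a reference surface. Compounds at several concentrations were injected at 100 μL/minute in phosphate buffer (137 mM NaCl, 2.7 mM KCl, 0.05% P20, 2% DMSO). Affinity and kinetics came from 1:1 model fits of the sensorgrams.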

Where [1] appears, read: 25° C., biotinylated human DLL3 immobilized on streptavidin sensor chip, 1:1 binding model, read-out: SPR KD.

Each structure is given as a SMILES string. pKd: −log10 of the molar value. Like-named read-outs stand apart in the source and are kept apart here. Numbered stars: 1 amine (or outer) side, 2 acyl side, 3 side chain; on linkers, the order of the positions; unused ones are H or OH. Bridge positions count the residues as written; N and C are the ends. Square brackets hold non-standard residues; d marks the D form. Peptide text beside a SMILES is read from it. I, II: the chains in the order shown. * marks the point of attachment. X10 = C[N+](C)(CCNC(=O)CCOCCOCCOCCOCCOCCOCCOCCOCCNC(=O)CN1CCN(CC(=O)O)CCN(CC(=O)O)CCN(CC(=O)O)CC1)CC(=O)*; DOTA = O=C(O)CN1CCN(CC(=O)O)CCN(CC(=O)*)CCN(CC(=O)O)CC1; PEG8 = NCCOCCOCCOCCOCCOCCOCCOCCOCCC(=O)O; 2Nal = N[C@@H](Cc1ccc2ccccc2c1)C(=O)O; X12 = C[N+](C)(CCN[*:1])CC(=O)[*:2]; 3Pal = N[C@@H](Cc1cccnc1)C(=O)O A value given as a limit tells only on which side of the number the result lay.

In general, pKd refers to the negative decadic logarithm of the Kd, by convention in mol/L. The compound `CC[C@H](C)[C@H](NC(=O)[C@@H](NC(=O)[C@H](Cc1c[nH]c2ccccc12)NC(C)=O)[C@@H](C)O)C(=O)N[C@H]1CSSC[C@@H](C(=O)N[C@@H](Cc2c[nH]c3ccccc23)C(=O)N2CCC[C@H]2C(=O)N[C@H](CCCCNC(=O)C[N+](C)(C)CCNC(=O)CCOCCOCCOCCOCCOCCOCCOCCOCCNC(=O)CN2CCN(CC(=O)O)CCN(CC(=O)O)CCN(CC(=O)O)CC2)C(N)=O)NC(=O)[C@H](CC(=O)O)NC(=O)[C@H](Cc2c[nH]cn2)NC(=O)[C@H](Cc2ccc3ccccc3c2)NC(=O)[C@H](CC(N)=O)NC(=O)[C@H](CC(N)=O)NC1=O` [compound 363, Ac-W-T-I-C(3)-N-N-(2Nal)-H-D-C(3)-W-P-[D-Lys(SP6-PEG8-DOTA)]-NH2] (Ac-WTICNN[2Nal]HDCWP[dK](X10)-NH2; disulfide 4-10) gave a pKd above 9.00.
Consider `CC[C@H](C)[C@H](NC(=O)[C@@H](NC(=O)[C@H](Cc1c[nH]c2ccccc12)NC(C)=O)[C@@H](C)O)C(=O)N[C@H]1CSSC[C@@H](C(=O)N[C@@H](Cc2c[nH]c3ccccc23)C(=O)N2CCC[C@H]2C(=O)NCC[N+](C)(C)CC(=O)NCCOCCOCCOCCOCCOCCOCCOCCOCCC(=O)N[C@H](CCCCNC(=O)CN2CCN(CC(=O)O)CCN(CC(=O)O)CCN(CC(=O)O)CC2)C(N)=O)NC(=O)[C@H](CC(=O)O)NC(=O)[C@H](Cc2c[nH]cn2)NC(=O)[C@H](Cc2ccc3ccccc3c2)NC(=O)[C@H](CC(N)=O)NC(=O)[C@H](CC(N)=O)NC1=O` [compound 364, Ac-W-T-I-C(3)-N-N-(2Nal)-H-D-C(3)-W-P-SP6-PEG8-[D-Lys(DOTA)]-NH2] (Ac-WTICNN[2Nal]HDCWP[X12][PEG8][dK](DOTA)-NH2; disulfide 4-10), for which, under setting [1], the negative-log Kd (pKd) is above 9.00.
Consider `CC[C@H](C)[C@H](NC(=O)[C@@H](NC(=O)[C@H](Cc1c[nH]c2ccccc12)NC(C)=O)[C@@H](C)O)C(=O)N[C@H]1CSSC[C@@H](C(=O)N[C@@H](Cc2c[nH]c3ccccc23)C(=O)N2CCC[C@H]2C(=O)N[C@H](CCCCNC(=O)CNC(=O)CNC(=O)[C@H](CO)NC(=O)CNC(=O)CNC(=O)[C@H](CO)NC(=O)CN2CCN(CC(=O)O)CCN(CC(=O)O)CCN(CC(=O)O)CC2)C(N)=O)NC(=O)[C@H](CC(=O)O)NC(=O)[C@H](Cc2c[nH]cn2)NC(=O)[C@H](Cc2ccc3ccccc3c2)NC(=O)[C@H](CC(N)=O)NC(=O)[C@H](CC(N)=O)NC1=O` [compound 365, Ac-W-T-I-C(3)-N-N-(2Nal)-H-D-C(3)-W-P-[D-Lys(G-G-S-G-G-S-DOTA)]-NH2] (I: Ac-WTICNN[2Nal]HDCWP[dK]-NH2 / II: {DOTA}-SGGSGG; disulfide I:4-I:10; amide I:13-II:C), for which the pKd under setting [1] is above 9.00.
Still for that read-out and setting: then `CC[C@H](C)[C@H](NC(=O)[C@@H](NC(=O)[C@H](Cc1c[nH]c2ccccc12)NC(C)=O)[C@@H](C)O)C(=O)N[C@H]1CSSC[C@@H](C(=O)N[C@@H](Cc2c[nH]c3ccccc23)C(=O)N2CCC[C@H]2C(=O)N[C@H](CCCCNC(=O)CN2CCN(CC(=O)O)CCN(CC(=O)O)CCN(CC(=O)O)CC2)C(N)=O)NC(=O)[C@H](CC(=O)O)NC(=O)[C@H](Cc2cccnc2)NC(=O)[C@H](Cc2ccc3ccccc3c2)NC(=O)[C@H](CC(N)=O)NC(=O)[C@H](CC(N)=O)NC1=O` [compound 366, Ac-W-T-I-C(3)-N-N-(2Nal)-(3Pya)-D-C(3)-W-P-[D-Lys(DOTA)]-NH2] (Ac-WTICNN[2Nal][3Pal]DCWP[dK](DOTA)-NH2; disulfide 4-10), with above 9.00.

The record behind these values is US20250011368A1, “DLL3 TARGETING PEPTIDES AND CONSTRUCTS THEREOF” (MARIANA ONCOLOGY INC., priority 2023, published 2025).
